Source: PubChem BioAssay AID1259408 (Genetic Toxicology Data Bank (GENE-TOX), 2018)
Calls of active or inactive are those of the source. No rule for the calls is given here.

Test system: GENE-TOX genotoxicity assays, various organisms and cells
Experiment: GENE-TOX mutagenicity studies
Settings: for call: Assay Type: In vivo carcinogenicity studies
[1] = Species/Cell Type: Saccharomyces cerevisiae, Assay Type: Mitotic recombination or gene conversion, Assay Code: YEH-, Evaluation Type: Evaluation A (Pre-1980)
[2] = Species/Cell Type: Salmonella typhimurium (one or more of the five standard strains: TA98, TA100, TA1535, TA1537, and TA1538), Assay Type: Histidine reverse gene mutation, Ames assay, Assay Code: SAL-, Evaluation Type: Evaluation A (Pre-1980)
[3] = Species/Cell Type: Syrian hamster embryo (SHE) cells, Assay Type: Cell transformation, clonal assay, Assay Code: CTC-, Evaluation Type: Evaluation A (Pre-1980)

## Cc1cc(Cl)ccc1OCC(=O)O
Species/Cell Type: Drosophila melanogaster, Assay Type: Aneuploidy, sex chromosome gain, chromosome aberrations, Assay Code: DAG-M-F, Evaluation Type: Evaluation A (Pre-1980)
  mutagenic call: inactive; negative
Species/Cell Type: Drosophila melanogaster, Assay Type: Aneuploidy, whole sex chromosome loss, chromosome aberrations, Assay Code: DAC-M-F, Evaluation Type: Evaluation A (Pre-1980)
  mutagenic call: inactive; negative
Species/Cell Type: Drosophila melanogaster, Assay Type: Sex-linked recessive lethal gene mutation, Assay Code: SRL+, Evaluation Type: Evaluation A (Pre-1980)
  mutagenic call: active; positive
Species/Cell Type: Saccharomyces cerevisiae, Assay Type: Reverse gene mutation, Assay Code: YER+, Evaluation Type: Evaluation A (Pre-1980)
  mutagenic call: active; positive
Species/Cell Type: Salmonella typhimurium, Serratia marcesens, Assay Type: Forward and reverse gene mutation, host-mediated assay, Assay Code: HM2-, Evaluation Type: Evaluation A (Pre-1980)
  mutagenic call: inactive; negative

## Brc1ccccc1
Species/Cell Type: Escherichia coli polA (W3119 vs P3478), Assay Type: Rec-assay, DNA effects (bacterial DNA repair), Assay Code: RE1T, Evaluation Type: Evaluation A (Pre-1980)
  mutagenic call: no conclusion
Species/Cell Type: Mammalian polychromatic erythrocytes, Assay Type: Micronucleus test, chromosome aberrations, Assay Code: MNT+, Evaluation Type: Evaluation B (Post-1980)
  mutagenic call: active; positive
[1]
  mutagenic call: inactive; negative
[2]
  mutagenic call: inactive; negative
Species/Cell Type: Salmonella typhimurium, Assay Type: Forward and reverse gene mutation, host-mediated assay, Assay Code: HMA-, Evaluation Type: Evaluation A (Pre-1980)
  mutagenic call: inactive; negative
[3]
  mutagenic call: inactive; negative

## COc1ccc([N+](=O)[O-])cc1N
Species/Cell Type: Nonhuman, Assay Code: CCG+, Evaluation Type: Evaluation A (Pre-1980)
  call: active; positive
Species/Cell Type: Salmonella typhimurium (one or more of the five standard strains: TA98, TA100, TA1535, TA1537, and TA1538), Assay Type: Histidine reverse gene mutation, Ames assay, Assay Code: SAL+, Evaluation Type: Evaluation A (Pre-1980)
  mutagenic call: active; positive

## Nc1ccccc1
Species/Cell Type: Allium cepa, Assay Type: Chromosome aberrations, Assay Code: ALCT, Evaluation Type: Evaluation A (Pre-1980)
  mutagenic call: no conclusion
Species/Cell Type: Escherichia coli polA (W3110 vs P3478), Assay Type: Rec-assay, DNA effects (bacterial DNA repair), Assay Code: RE2-, Evaluation Type: Evaluation A (Pre-1980)
  mutagenic call: inactive; negative
Species/Cell Type: Escherichia coli polA (W3119 vs P3478), Assay Type: Rec-assay, DNA effects (bacterial DNA repair), Assay Code: RE1+, Evaluation Type: Evaluation A (Pre-1980)
  mutagenic call: active; positive
Species/Cell Type: Fischer rat embryo (RLV/1706) cells, Assay Type: Cell transformation, viral enhanced, Assay Code: CTR+, Evaluation Type: Evaluation A (Pre-1980)
  mutagenic call: active; positive
Species/Cell Type: Human lymphocytes, Assay Type: Sister-chromatid exchange (SCE) in vitro, Assay Code: SCL+, Evaluation Type: Evaluation B (Post-1980)
  mutagenic call: active; positive
Species/Cell Type: Human, Assay Type: Sister-chromatid exchange (SCE) in vitro, Assay Code: SC1+, Evaluation Type: Evaluation B (Post-1980)
  mutagenic call: active; positive
Species/Cell Type: Mammalian polychromatic erythrocytes, Assay Type: Micronucleus test, chromosome aberrations, Assay Code: MNTT, Evaluation Type: Evaluation B (Post-1980)
  mutagenic call: no conclusion
Species/Cell Type: Mouse (BALB/c-3T3) cells, Assay Type: Cell transformation, Assay Code: CTB+D, Dose Response: With dose response, Evaluation Type: Evaluation A (Pre-1980)
  mutagenic call: active; positive
Species/Cell Type: Mouse, Sex: Male, Assay Type: Sperm morphology, Assay Code: SPI-, Evaluation Type: Evaluation A (Pre-1980)
  mutagenic call: inactive; negative
Species/Cell Type: Nonhuman, Assay Code: CCG+L, Evaluation Type: Evaluation A (Pre-1980)
  call: active; positive
Species/Cell Type: Nonhuman, Assay Code: CCGT, Evaluation Type: Evaluation A (Pre-1980)
  call: no conclusion
Species/Cell Type: Nonhuman, Assay Type: Sister-chromatid exchange (SCE) in vitro, Assay Code: SC2+D, Dose Response: With dose response, Evaluation Type: Evaluation A (Pre-1980)
  mutagenic call: active; positive
Species/Cell Type: Nonhuman, Assay Type: Sister-chromatid exchange (SCE) in vivo, Assay Code: SC3+D, Dose Response: With dose response, Evaluation Type: Evaluation B (Post-1980)
  mutagenic call: active; positive
[1]
  mutagenic call: inactive; negative
[2]
  mutagenic call: inactive; negative
[3]
  mutagenic call: inactive; negative

## CC1=CC(=C(c2ccc(N)cc2)c2ccc(N)cc2)C=CC1=N (tested in a mixture with another compound)
Species/Cell Type: Saccharomyces cerevisiae, Assay Type: Forward gene mutation, Assay Code: YEFT, Evaluation Type: Evaluation A (Pre-1980)
  mutagenic call: no conclusion

## CC1=C(O)C(=O)CC1
Species/Cell Type: Human lymphocytes, Assay Type: Sister-chromatid exchange (SCE) in vitro, Assay Code: SCL+D, Dose Response: With dose response, Evaluation Type: Evaluation B (Post-1980)
  mutagenic call: active; positive
Species/Cell Type: Human, Assay Type: Sister-chromatid exchange (SCE) in vitro, Assay Code: SC1+D, Dose Response: With dose response, Evaluation Type: Evaluation B (Post-1980)
  mutagenic call: active; positive
